Measured values reported in US20230085307A1, “PYRIDAZINONE COMPOUND AND HERBICIDE” (NISSAN CHEMICAL CORPORATION, priority 2019, published 2023).

tested on: Japanese bulrush; test: Test Example 1: herbicidal activity, application before weed generation under submerged conditions (Table 16, symbol B); format: in vivo, Japanese bulrush (Schoenoplectus juncoides); details: 320 g/ha applied herbicide
Outline: (§1)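 Submerged Wagner pots (alluvial soil, 4 cm water) sown with weed seeds and planted with 2.5-leaf rice seedlings; emulsifiable concentrate diluted in water applied to water surface on sowing day. Held in greenhouse at 25-30 °C; injury scored 0-5 by herbicidal rate after three weeks.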

| SMILES | Herbicidal effect on B: Japanese bulrush (grade 0-5) |
| --- | --- |
| Cc1nn(C)c(=O)c(-c2c(-c3ccc(SC(C)C)cc3)sc3ccc(F)cc23)c1O [2-252] | 2 (Herbicidal rate of 20% or more and less than 40%) |

tested on: redroot pigweed; test: Test Example 5: herbicidal effect by foliage application, plastic box (Table 20, symbol N); format: in vivo, redroot pigweed (Amaranthus retroflexus); details: foliage application, 320 g/ha, evaluated three weeks after application
Outline: (§2)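 Sow seeds spot-wise in sterilized diluvial soil; cover with ~1.5 cm soil. Grow 14 days in greenhouse, 25° C. to 30° C. Spray foliage with emulsion diluted to predetermined amount. Rate effect after 3 weeks.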

| SMILES | herbicidal effect on N: redroot pigweed (criteria 0-5) |
| --- | --- |
| Cc1nn(C)c(=O)c(-c2c(-c3ccc(SC(C)C)cc3)sc3ccc(F)cc23)c1O [2-252] | 5 (Herbicidal rate of 90% or more (almost completely withered)) |

tested on: Italian ryegrass; test: Test Example 4: herbicidal effect by soil treatment (Table 19, symbol K); format: in vivo, Italian ryegrass (Lolium multiflorum); details: amount of applied herbicide 320 g/ha
Outline: (§3)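 Soil-surface application: an emulsion agent diluted with water to the predetermined dose is sprayed uniformly over seeds lying under roughly 1.5 cm of sterilized diluvial soil. Boxes stay in a greenhouse at 25° C. to 30° C. Three weeks later, each species is graded on previously defined criteria.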

| SMILES | herbicidal effect on K: Italian ryegrass |
| --- | --- |
| Cc1nn(C)c(=O)c(-c2c(-c3ccc(SC(C)C)cc3)sc3ccc(F)cc23)c1O [2-252] | 3 (Herbicidal rate of 40% or more and less than 70%) |

tested on: green foxtail; test: Test Example 5: herbicidal effect by foliage application, plastic box (Table 20, symbol G); format: in vivo, green foxtail (Setaria viridis); details: foliage application, 320 g/ha, evaluated three weeks after application
Outline: as §2

| SMILES | herbicidal effect on G: green foxtail (criteria 0-5) |
| --- | --- |
| Cc1nn(C)c(=O)c(-c2c(-c3ccc(SC(C)C)cc3)sc3ccc(F)cc23)c1O [2-252] | 4 (Herbicidal rate of 70% or more and less than 90%) |

tested on: late watergrass; test: Test Example 2: herbicidal activity, application during weed generation under submerged conditions (Table 17, symbol A); format: in vivo, late watergrass (Echinochloa oryzicola); details: AAH 320 g/ha; application during weed generation, submerged conditions
Outline: (§4)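 Alluvial soil in Wagner pots was flooded to 4 cm depth and sown with the three weeds together; pots were kept in a greenhouse at 25° C. to 30° C. At the one to two leaf stage, an emulsion formulation diluted in water to a set rate went onto the water surface; scored three weeks later.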

| SMILES | herbicidal effect rating, A: late watergrass |
| --- | --- |
| Cc1nn(C)c(=O)c(-c2c(-c3ccc(SC(C)C)cc3)sc3ccc(F)cc23)c1O [2-252] | 4 (Herbicidal rate of 70% or more and less than 90%) |

tested on: Chinese sprangletop; test: Test Example 3: herbicidal effect by foliage application, Wagner pot (Table 18, symbol D); format: in vivo, chinese sprangletop (Leptochloa chinensis); details: amount of applied herbicide 320 g/ha
Outline: (§5)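 Plants were sown in alluvial soil held under 0.1–0.5 cm standing water and grown 14 days in a greenhouse at 25–30 °C. An emulsifiable formulation, water-diluted to the set dose, was then sprayed onto the foliage, and effects were scored three weeks later using previously defined criteria.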

| SMILES | herbicidal effect on D: Chinese sprangletop |
| --- | --- |
| Cc1nn(C)c(=O)c(-c2c(-c3ccc(SC(C)C)cc3)sc3ccc(F)cc23)c1O [2-252] | 5 (Herbicidal rate of 90% or more (almost completely withered)) |

tested on: rice flat sedge; test: Test Example 3: herbicidal effect by foliage application, Wagner pot (Table 18, symbol E); format: in vivo, rice flat sedge (Cyperus iria); details: amount of applied herbicide 320 g/ha
Outline: as §5

| SMILES | herbicidal effect on E: rice flat sedge |
| --- | --- |
| Cc1nn(C)c(=O)c(-c2c(-c3ccc(SC(C)C)cc3)sc3ccc(F)cc23)c1O [2-252] | 5 (Herbicidal rate of 90% or more (almost completely withered)) |

tested on: late watergrass; test: Test Example 1: herbicidal activity, application before weed generation under submerged conditions (Table 16, symbol A); format: in vivo, late watergrass (Echinochloa oryzicola); details: 320 g/ha applied herbicide
Outline: as §1

| SMILES | Herbicidal effect on A: late watergrass (grade 0-5) |
| --- | --- |
| Cc1nn(C)c(=O)c(-c2c(-c3ccc(SC(C)C)cc3)sc3ccc(F)cc23)c1O [2-252] | 3 (Herbicidal rate of 40% or more and less than 70%) |

tested on: Italian ryegrass; test: Test Example 5: herbicidal effect by foliage application, plastic box (Table 20, symbol K); format: in vivo, Italian ryegrass (Lolium multiflorum); details: foliage application, 320 g/ha, evaluated three weeks after application
Outline: as §2

| SMILES | herbicidal effect on K: Italian ryegrass (criteria 0-5) |
| --- | --- |
| Cc1nn(C)c(=O)c(-c2c(-c3ccc(SC(C)C)cc3)sc3ccc(F)cc23)c1O [2-252] | 5 (Herbicidal rate of 90% or more (almost completely withered)) |

tested on: oval-leafed pondweed; test: Test Example 2: herbicidal activity, application during weed generation under submerged conditions (Table 17, symbol C); format: in vivo, oval-leafed pondweed (Monochoria vaginalis); details: AAH 320 g/ha; application during weed generation, submerged conditions
Outline: as §4

| SMILES | herbicidal effect rating, C: oval-leafed pondweed |
| --- | --- |
| Cc1nn(C)c(=O)c(-c2c(-c3ccc(SC(C)C)cc3)sc3ccc(F)cc23)c1O [2-252] | 2 (Herbicidal rate of 20% or more and less than 40%) |

tested on: wild oat; test: Test Example 5: herbicidal effect by foliage application, plastic box (Table 20, symbol I); format: in vivo, wild oat (Avena fatua); details: foliage application, 320 g/ha, evaluated three weeks after application
Outline: as §2

| SMILES | herbicidal effect on I: wild oat (criteria 0-5) |
| --- | --- |
| Cc1nn(C)c(=O)c(-c2c(-c3ccc(SC(C)C)cc3)sc3ccc(F)cc23)c1O [2-252] | 4 (Herbicidal rate of 70% or more and less than 90%) |

tested on: barnyard grass; test: Test Example 5: herbicidal effect by foliage application, plastic box (Table 20, symbol H); format: in vivo, barnyard grass (Echinochloa crus-galli); details: foliage application, 320 g/ha, evaluated three weeks after application
Outline: as §2

| SMILES | herbicidal effect on H: barnyard grass (criteria 0-5) |
| --- | --- |
| Cc1nn(C)c(=O)c(-c2c(-c3ccc(SC(C)C)cc3)sc3ccc(F)cc23)c1O [2-252] | 5 (Herbicidal rate of 90% or more (almost completely withered)) |

tested on: barnyard grass; test: Test Example 3: herbicidal effect by foliage application, Wagner pot (Table 18, symbol H); format: in vivo, barnyard grass (Echinochloa crus-galli); details: amount of applied herbicide 320 g/ha
Outline: as §5

| SMILES | herbicidal effect on H: barnyard grass |
| --- | --- |
| Cc1nn(C)c(=O)c(-c2c(-c3ccc(SC(C)C)cc3)sc3ccc(F)cc23)c1O [2-252] | 5 (Herbicidal rate of 90% or more (almost completely withered)) |

tested on: blackgrass; test: Test Example 5: herbicidal effect by foliage application, plastic box (Table 20, symbol J); format: in vivo, blackgrass (Alopecurus myosuroides); details: foliage application, 320 g/ha, evaluated three weeks after application
Outline: as §2

| SMILES | herbicidal effect on J: blackgrass (criteria 0-5) |
| --- | --- |
| Cc1nn(C)c(=O)c(-c2c(-c3ccc(SC(C)C)cc3)sc3ccc(F)cc23)c1O [2-252] | 5 (Herbicidal rate of 90% or more (almost completely withered)) |

tested on: redroot pigweed; test: Test Example 4: herbicidal effect by soil treatment (Table 19, symbol N); format: in vivo, redroot pigweed (Amaranthus retroflexus); details: amount of applied herbicide 320 g/ha
Outline: as §3

| SMILES | herbicidal effect on N: redroot pigweed |
| --- | --- |
| Cc1nn(C)c(=O)c(-c2c(-c3ccc(SC(C)C)cc3)sc3ccc(F)cc23)c1O [2-252] | 5 (Herbicidal rate of 90% or more (almost completely withered)) |

tested on: windgrass; test: Test Example 4: herbicidal effect by soil treatment (Table 19, symbol L); format: in vivo, windgrass (Apera spica-venti); details: amount of applied herbicide 320 g/ha
Outline: as §3

| SMILES | herbicidal effect on L: windgrass |
| --- | --- |
| Cc1nn(C)c(=O)c(-c2c(-c3ccc(SC(C)C)cc3)sc3ccc(F)cc23)c1O [2-252] | 0 (Herbicidal rate of 5% or less (almost no effect)) |
